# Data published in PubChem BioAssay (NCI).
#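 1) Cells in 96-well plates. 2) Compound, 48 h, 5 concentrations. 3) Linear interpolation between surrounding doses. 4) Unreached endpoint = highest concentration. TGI is the concentration that stops growth completely.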
# Columns and labels:
# Experiment in all cases: NCI tumour cell line growth inhibition, 48 h
# [1] = system: COLO 205 colon
# [2] = system: IGROV1 ovarian
# [3] = system: DMS 114 small cell lung
# [4] = system: KM20L2 colon
# [5] = system: OVCAR-4 ovarian
# [6] = system: LOX IMVI melanoma
# [7] = system: SNB-19 CNS
# [8] = system: HOP-92 NSCLC
# [9] = system: OVCAR-3 ovarian
# [10] = system: SK-MEL-2 melanoma
# [11] = system: DLD-1 colon
# [12] = system: OVCAR-8 ovarian
# [13] = system: SN12C renal
# [14] = system: SK-MEL-28 melanoma
# [15] = system: A498 renal
# [16] = system: HOP-62 NSCLC
# [17] = system: HOP-18 NSCLC
# [18] = system: ACHN renal
# [19] = system: NCI-H460 lung
# [20] = system: HCT-116 colon
# [21] = system: 786-0 renal
# [22] = system: HL-60(TB) leukemia
# [23] = system: NCI-H522 lung
# [24] = system: A549 NSCLC
# [25] = system: RXF 393 renal
# [26] = system: HCC-2998 colon
# [27] = system: SF-539 CNS
# [28] = system: UO-31 renal
# [29] = system: CCRF-CEM leukemia
# [30] = system: SF-268 CNS
# [31] = system: XF 498 CNS
# [32] = system: M14 melanoma
# [33] = system: SF-295 CNS
# [34] = system: MALME-3M melanoma
# [35] = system: RXF-631 renal
# [36] = system: SNB-75 CNS
# [37] = system: K-562 leukemia
# [38] = system: U251 CNS
# [39] = system: HT29 colon
# [40] = system: SNB-78 CNS
# [41] = system: CAKI-1 renal
# [42] = system: LXFL 529 NSCLC
# [43] = system: SW-620 colon
# [44] = system: KM12 colon
# [45] = system: RPMI-8226 leukemia
# [46] = system: UACC-257 melanoma
# [47] = system: SK-MEL-5 melanoma
# [48] = system: OVCAR-5 ovarian
# [49] = system: NCI-H226 lung
# [50] = system: SK-OV-3 ovarian
# [51] = system: SR leukemia
# [52] = system: MOLT-4 leukemia
# [53] = system: HCT-15 colon
# [54] = system: UACC-62 melanoma
# [55] = system: NCI-H23 lung
# [56] = system: EKVX NSCLC
# [57] = system: M19-MEL melanoma
# [58] = system: TK-10 renal
# [59] = system: DMS 273 small cell lung
# [60] = system: P388 leukemia
# [61] = system: NCI/ADR-RES ovarian
# [62] = system: P388/ADR leukemia
# [63] = system: SN12K1 renal
# [64] = system: MCF7 breast
smiles,measurement,setting,value
O=c1[nH]c2nc3ccccc3n2c(O)c1-c1ccccc1,TGI,[1],> 100 µM
same,TGI,[2],> 100 µM
same,TGI,[3],> 100 µM
same,TGI,[4],> 100 µM
same,TGI,[5],> 100 µM
same,TGI,[6],> 100 µM
same,TGI,[7],> 100 µM
same,TGI,[8],> 100 µM
same,TGI,[9],> 100 µM
same,TGI,[10],> 100 µM
same,TGI,[11],> 100 µM
same,TGI,[12],> 100 µM
same,TGI,[13],> 100 µM
same,TGI,[14],> 100 µM
same,TGI,[15],> 100 µM
same,TGI,[16],> 100 µM
same,TGI,[17],> 100 µM
same,TGI,[18],> 100 µM
same,TGI,[19],> 100 µM
same,TGI,[20],> 100 µM
same,TGI,[21],> 100 µM
same,TGI,[22],> 100 µM
same,TGI,[23],> 100 µM
same,TGI,[24],> 100 µM
same,TGI,[25],> 100 µM
same,TGI,[26],> 100 µM
same,TGI,[27],> 100 µM
same,TGI,[28],> 100 µM
same,TGI,[29],> 100 µM
same,TGI,[30],> 100 µM
same,TGI,[31],> 100 µM
same,TGI,[32],> 100 µM
same,TGI,[33],> 100 µM
same,TGI,[34],> 100 µM
same,TGI,[35],> 100 µM
same,TGI,[36],> 100 µM
same,TGI,[37],> 100 µM
same,TGI,[38],> 100 µM
same,TGI,[39],> 100 µM
same,TGI,[40],> 100 µM
same,TGI,[41],> 100 µM
same,TGI,[42],> 100 µM
same,TGI,[43],> 100 µM
same,TGI,[44],> 100 µM
same,TGI,[45],> 100 µM
same,TGI,[46],> 100 µM
same,TGI,[47],> 100 µM
same,TGI,[48],> 100 µM
same,TGI,[49],> 100 µM
same,TGI,[50],> 100 µM
same,TGI,[51],> 100 µM
same,TGI,[52],> 100 µM
same,TGI,[53],> 100 µM
same,TGI,[54],> 100 µM
same,TGI,[55],> 100 µM
same,TGI,[56],> 100 µM
same,TGI,[57],> 100 µM
same,TGI,[58],> 100 µM
same,TGI,[59],> 100 µM
CN(C)C(=O)N(CCCl)N=O,TGI,[1],> 100 µM
same,TGI,[2],> 100 µM
same,TGI,[60],> 100 µM
same,TGI,[3],> 100 µM
same,TGI,[4],> 100 µM
same,TGI,[5],> 100 µM
same,TGI,[61],> 100 µM
same,TGI,[6],> 100 µM
same,TGI,[7],> 100 µM
same,TGI,[8],> 100 µM
same,TGI,[62],> 100 µM
same,TGI,[9],> 100 µM
same,TGI,[10],> 100 µM
same,TGI,[11],> 100 µM
same,TGI,[12],> 100 µM
same,TGI,[13],> 100 µM
same,TGI,[14],> 100 µM
same,TGI,[15],> 100 µM
same,TGI,[16],> 100 µM
same,TGI,[17],> 100 µM
same,TGI,[19],> 100 µM
same,TGI,[20],> 100 µM
same,TGI,[22],> 100 µM
same,TGI,[23],> 100 µM
same,TGI,[63],> 100 µM
same,TGI,[24],> 100 µM
same,TGI,[25],> 100 µM
same,TGI,[26],> 100 µM
same,TGI,[27],> 100 µM
same,TGI,[28],> 100 µM
same,TGI,[29],> 100 µM
same,TGI,[30],> 100 µM
same,TGI,[31],> 100 µM
same,TGI,[33],> 100 µM
same,TGI,[34],> 100 µM
same,TGI,[64],> 100 µM
same,TGI,[36],> 100 µM
same,TGI,[37],> 100 µM
same,TGI,[38],> 100 µM
same,TGI,[39],> 100 µM
same,TGI,[40],> 100 µM
same,TGI,[41],> 100 µM
same,TGI,[43],> 100 µM
same,TGI,[44],> 100 µM
same,TGI,[45],> 100 µM
same,TGI,[46],> 100 µM
same,TGI,[47],> 100 µM
same,TGI,[48],> 100 µM
same,TGI,[50],> 100 µM
same,TGI,[52],> 100 µM
same,TGI,[53],> 100 µM
same,TGI,[54],> 100 µM
same,TGI,[55],> 100 µM
same,TGI,[56],> 100 µM
same,TGI,[57],> 100 µM
same,TGI,[59],> 100 µM
NC1CCCCC1,TGI,[1],> 56.2 µM
same,TGI,[2],> 562 µM
same,TGI,[60],243 µM
same,TGI,[3],> 56.2 µM
same,TGI,[4],> 562 µM
same,TGI,[5],> 562 µM
same,TGI,[61],> 562 µM
same,TGI,[6],> 562 µM
same,TGI,[7],> 562 µM
same,TGI,[8],> 562 µM
same,TGI,[9],> 562 µM
same,TGI,[10],> 562 µM
same,TGI,[11],> 562 µM
same,TGI,[12],> 562 µM
same,TGI,[13],> 562 µM
same,TGI,[14],> 562 µM
same,TGI,[15],> 562 µM
same,TGI,[16],> 562 µM
same,TGI,[17],< 0.0562 µM
same,TGI,[19],> 562 µM
same,TGI,[20],> 562 µM
same,TGI,[22],380 µM
same,TGI,[23],> 562 µM
same,TGI,[63],> 562 µM
same,TGI,[24],> 562 µM
same,TGI,[25],> 562 µM
same,TGI,[26],> 562 µM
same,TGI,[27],418 µM
same,TGI,[29],> 562 µM
same,TGI,[30],> 562 µM
same,TGI,[34],> 562 µM
same,TGI,[64],> 562 µM
same,TGI,[36],> 562 µM
same,TGI,[37],> 562 µM
same,TGI,[38],> 562 µM
same,TGI,[39],> 562 µM
same,TGI,[40],> 562 µM
same,TGI,[43],> 562 µM
same,TGI,[44],> 562 µM
same,TGI,[45],> 562 µM
same,TGI,[46],> 562 µM
same,TGI,[47],> 562 µM
same,TGI,[48],> 562 µM
same,TGI,[52],> 562 µM
same,TGI,[53],> 562 µM
same,TGI,[54],> 562 µM
same,TGI,[55],> 562 µM
same,TGI,[56],> 562 µM
same,TGI,[57],> 562 µM
same,TGI,[59],> 562 µM
